Source: patent EP2140864A2 (H. Lundbeck A/S, priority 2001, dated 2002)

Experiments:
human 5HT1A receptor = target: T1, human 5HT1A receptor (Homo sapiens, UniProt P08908); assay: Radioligand binding, 5-HT1A receptor (3H-8-OH-DPAT)
T1 construct: expressed in transfected cells; host or cells: COS-7 cells, transient (pCEXV-3 vector)
T1 sequence (P08908 1-422): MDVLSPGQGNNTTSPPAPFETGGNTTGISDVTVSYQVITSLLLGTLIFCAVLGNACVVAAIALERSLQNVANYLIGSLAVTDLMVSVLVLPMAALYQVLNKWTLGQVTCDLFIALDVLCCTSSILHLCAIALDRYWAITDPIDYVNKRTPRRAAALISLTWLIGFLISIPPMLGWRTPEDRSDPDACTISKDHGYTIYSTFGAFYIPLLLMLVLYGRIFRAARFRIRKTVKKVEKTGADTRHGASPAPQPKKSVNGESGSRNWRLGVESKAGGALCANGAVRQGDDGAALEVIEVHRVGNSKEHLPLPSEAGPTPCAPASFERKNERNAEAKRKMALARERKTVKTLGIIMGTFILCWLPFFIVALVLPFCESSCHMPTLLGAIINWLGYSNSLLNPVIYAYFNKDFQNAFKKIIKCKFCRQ
Experimental: 5-HT1A Receptor: The cDNA corresponding to the 5-HT1A receptor open reading frames and variable non-coding 5'-and 3'-regions, was cloned into the eukaryotic expression vector pCEXV-3. These constructs were transfected transiently into COS-7 cells by the DEAE-dextran method (Cullen, 1987), and harvested after 72 hours. Radioligand binding assays were performed as described above for the 5-HT2A receptor, except that ^3H-8-OH-DPAT was used as the radioligand and nonspecific binding was determined by the addition of 10 µM mianserin.
(§1) Binding data were analyzed using nonlinear regression and statistical techniques available in the GraphPAD Prism package (San Diego, CA). Enzymatic assay data were derived from a standard curve of reference compound data.

NE transporter [1] = assay: Binding at native NE transporter; details: Table 8; Ki rNE Uptk divided by Ki hGAL3
Experimental: (§2) The binding properties of the compounds of the present invention were evaluated at one or more cloned receptors or native, tissue-derived transporters, using protocols described below.
(§3) The methods to determine binding affinity at native transporters are described in the following publications: 5HT transporter and NE transporter (Owens et al., 1997), and DA transporter (Javitch et al, 1984).
as §1

NE transporter [2] = target: NE transporter (Rattus norvegicus, UniProt Q63380); assay: Binding at native NE transporter; details: Table 7; native transporter, head prints r (rat); read-out: rNE Uptk Ki
Chain of NE transporter (Rattus norvegicus, UniProt Q63380) (Q63380 1-617): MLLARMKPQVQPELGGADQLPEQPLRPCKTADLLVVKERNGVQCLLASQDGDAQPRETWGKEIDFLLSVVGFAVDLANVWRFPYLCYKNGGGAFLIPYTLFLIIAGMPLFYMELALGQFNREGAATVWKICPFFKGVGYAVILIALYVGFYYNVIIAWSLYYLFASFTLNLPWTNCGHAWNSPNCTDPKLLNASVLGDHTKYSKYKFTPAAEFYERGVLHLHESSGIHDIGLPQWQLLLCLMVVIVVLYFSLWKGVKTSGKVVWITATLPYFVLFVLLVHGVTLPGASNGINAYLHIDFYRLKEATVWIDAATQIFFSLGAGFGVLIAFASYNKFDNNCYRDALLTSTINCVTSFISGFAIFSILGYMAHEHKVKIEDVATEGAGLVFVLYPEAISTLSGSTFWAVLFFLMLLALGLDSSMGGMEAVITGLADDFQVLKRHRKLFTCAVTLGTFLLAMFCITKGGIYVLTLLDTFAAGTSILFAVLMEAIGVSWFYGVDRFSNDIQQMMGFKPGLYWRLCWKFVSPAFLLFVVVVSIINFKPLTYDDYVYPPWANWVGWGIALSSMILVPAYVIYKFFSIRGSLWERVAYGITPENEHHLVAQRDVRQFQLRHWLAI
Experimental: as §2, §3, §1

DA transporter = DA transporter (Rattus norvegicus, UniProt P23977); assay: Binding at native DA transporter
Chain of DA transporter (P23977 whole entry): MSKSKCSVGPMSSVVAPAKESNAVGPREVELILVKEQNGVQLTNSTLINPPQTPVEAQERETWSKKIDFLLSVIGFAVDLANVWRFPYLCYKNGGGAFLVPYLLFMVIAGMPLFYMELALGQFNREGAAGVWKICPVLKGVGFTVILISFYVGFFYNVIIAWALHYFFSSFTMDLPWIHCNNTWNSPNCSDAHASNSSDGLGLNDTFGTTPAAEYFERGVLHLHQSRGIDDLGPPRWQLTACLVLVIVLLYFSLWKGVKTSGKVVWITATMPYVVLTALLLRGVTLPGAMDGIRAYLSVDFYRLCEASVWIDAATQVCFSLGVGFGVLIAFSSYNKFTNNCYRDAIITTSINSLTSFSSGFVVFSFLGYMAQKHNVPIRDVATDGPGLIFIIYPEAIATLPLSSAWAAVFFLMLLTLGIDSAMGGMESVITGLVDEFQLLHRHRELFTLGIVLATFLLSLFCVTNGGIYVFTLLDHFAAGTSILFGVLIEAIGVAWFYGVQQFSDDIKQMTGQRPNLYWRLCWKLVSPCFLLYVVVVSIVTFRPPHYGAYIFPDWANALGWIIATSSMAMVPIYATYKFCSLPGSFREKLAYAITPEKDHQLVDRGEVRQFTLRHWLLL
Experimental: as §2, §3, §1

5HT transporter = 5HT transporter (Rattus norvegicus, UniProt P31652); assay: Binding at native 5HT transporter
Chain of 5HT transporter (P31652 whole entry): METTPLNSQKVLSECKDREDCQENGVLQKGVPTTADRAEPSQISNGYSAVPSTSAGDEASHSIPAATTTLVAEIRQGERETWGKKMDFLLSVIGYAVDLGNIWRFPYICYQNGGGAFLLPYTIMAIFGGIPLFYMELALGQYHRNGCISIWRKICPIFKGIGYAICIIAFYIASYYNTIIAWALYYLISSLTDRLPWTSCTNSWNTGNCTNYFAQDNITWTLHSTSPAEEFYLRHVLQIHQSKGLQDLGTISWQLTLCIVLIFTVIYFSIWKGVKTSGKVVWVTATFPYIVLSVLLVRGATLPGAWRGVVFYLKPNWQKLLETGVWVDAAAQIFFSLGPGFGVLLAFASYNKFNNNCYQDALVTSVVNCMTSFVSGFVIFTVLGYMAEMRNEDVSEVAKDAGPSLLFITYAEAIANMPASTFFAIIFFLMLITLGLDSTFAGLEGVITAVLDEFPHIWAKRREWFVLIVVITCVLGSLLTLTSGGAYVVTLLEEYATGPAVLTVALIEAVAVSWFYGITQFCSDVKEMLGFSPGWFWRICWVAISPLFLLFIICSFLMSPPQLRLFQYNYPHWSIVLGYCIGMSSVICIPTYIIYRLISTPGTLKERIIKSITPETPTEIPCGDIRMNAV
Experimental: as §2, §3, §1

human GAL1 receptor = target: T2, human GAL1 receptor (Homo sapiens, UniProt P47211); assay: Radioligand binding at cloned human GAL1 receptor; details: indolones, read-out: Ki GalR1
T2 construct: expressed in transfected cells
T2 sequence (P47211 1-349): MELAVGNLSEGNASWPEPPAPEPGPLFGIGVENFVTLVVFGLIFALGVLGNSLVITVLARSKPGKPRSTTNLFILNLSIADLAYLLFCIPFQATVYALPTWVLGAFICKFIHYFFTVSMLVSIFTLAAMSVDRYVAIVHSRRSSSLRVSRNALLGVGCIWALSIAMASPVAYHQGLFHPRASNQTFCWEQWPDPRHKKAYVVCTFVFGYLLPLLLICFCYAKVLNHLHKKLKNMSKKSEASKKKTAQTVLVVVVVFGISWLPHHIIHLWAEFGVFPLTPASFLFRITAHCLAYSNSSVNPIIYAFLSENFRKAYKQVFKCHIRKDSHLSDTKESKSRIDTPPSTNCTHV
In short: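 Membranes from CHO cells stably expressing human GAL2 and LM(tk-) cells stably expressing human GAL1, resuspended in binding buffer (10 mM NaCl, 20 mM HEPES, pH 7.4). Binding data fitted by nonlinear regression.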

human 5HT7 = target: T3, human 5HT7 (Homo sapiens, UniProt P34969); assay: Radioligand binding, 5HT7 receptor ([3H]-serotonin)
T3 construct: expressed in transfected cells
T3 sequence (P34969 1-445 isoform P34969-2): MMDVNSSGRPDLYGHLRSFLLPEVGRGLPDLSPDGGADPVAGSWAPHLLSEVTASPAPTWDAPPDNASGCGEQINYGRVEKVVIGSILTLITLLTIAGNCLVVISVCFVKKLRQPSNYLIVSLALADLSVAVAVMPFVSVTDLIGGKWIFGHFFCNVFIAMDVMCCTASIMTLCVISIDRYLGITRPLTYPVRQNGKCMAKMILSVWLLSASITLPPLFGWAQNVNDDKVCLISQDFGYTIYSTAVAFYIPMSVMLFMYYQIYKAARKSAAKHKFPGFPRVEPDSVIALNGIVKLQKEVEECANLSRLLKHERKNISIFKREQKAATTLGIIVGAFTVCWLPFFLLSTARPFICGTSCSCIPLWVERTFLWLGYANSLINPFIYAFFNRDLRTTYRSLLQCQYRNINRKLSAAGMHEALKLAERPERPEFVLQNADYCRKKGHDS
Experimental: Human 5HT1B, 5HT1D, 5HT1E, 5HT1F, and 5HT7 Receptors: The cell lysates of LM(tk-) clonal cell line stably transfected with the genes encoding each of these 5HT receptor-subtypes were prepared as described above. Cell membranes were suspended in 50mM Tris-HCl buffer (pH 7.4 at 37°C) containing 10 mM MgCl2, 0.2 mM EDTA, 10 µM pargyline, and 0.1% ascorbate. […] Nonspecific binding was determined in the presence of 10 µM serotonin. The bound radioligand was separated by filtration through GF/B filters using a cell harvester.
as §1

O=C1C(=Nc2ccc(Br)cc2)c2ccccc2N1c1ccccc1 [Example 98, 3-[(4-BROMOPHENYL)IMINO]-1-PHENYL-1,3-DIHYDRO-2H-INDOL-2-ONE]
Ki (human 5HT1A receptor; Table 7, read-out: h5HT1A Ki): 24.6 µM
selectivity ratio h5HT1A (human 5HT1A receptor; Table 8, Ki h5HT1A divided by Ki hGAL3): >100
selectivity ratio rNE Uptk (NE transporter [1]): >100
Ki (NE transporter [2]): 5.5 µM
Ki (DA transporter; Table 7, native transporter, head prints r (rat), read-out: rDA Uptk Ki): 7.43 µM
selectivity ratio rDA Uptk (DA transporter; Table 8, Ki rDA Uptk divided by Ki hGAL3): >100
Ki (5HT transporter; Table 7, native transporter, head prints r (rat), read-out: r5HT Uptk Ki): 36.3 µM
selectivity ratio r5HT Uptk (5HT transporter; Table 8, Ki r5HT Uptk divided by Ki hGAL3): >100
Ki (human GAL1 receptor): > 10 µM
Ki (human 5HT7; Table 7, read-out: h5HT7 Ki): 8.46 µM
selectivity ratio h5HT7 (human 5HT7; Table 8, Ki h5HT7 divided by Ki hGAL3): >100
